Patent publication US12589143B2, “Human anti-PD-L1 peptide vaccines and methods of their use” (priority 2019, dated 2026)
“And” between values parts separate entries of the source, which are not always exact repeats. Equal entries are not always repeated. Where no end group is shown, it is not given here.

Test system: MVF-PD-L1 peptide immunogen
Assay: Immunogenicity in Balb/c mice, experiment 1 (CT26 WT): ELISA of sera vs each MVF-PD-L1 peptide immunogen
Format: in vivo
Conditions: for Immunogenicity (titers) 1′ Conc. 1:: Balb/c mice
Description: Immunogenicity of MVF-PD-L1 B-cell epitopes. New Zealand White rabbits were immunized with 1 mg of each MVF-peptide immunogens dissolved in dd H2O emulsified (1:1) in Montanide ISA 720 vehicle (Seppic) with 333 μg of N-acetylglucosamine-3yl-acetyl-1-alanyl-d-isoglutamine (nor-MDP). Rabbits were boosted with the same doses at 3-week's intervals. Blood was collected via the central auricular artery in rabbits. Blood was collected weekly (1Y+3, 2Y+1, 2Y+2,2Y+3, 3Y+1, 3Y+2 and sera tested for antibody titers by ELISA using the immunogens MVF-PD-L1 peptides. Sera (terminal) from rabbit (3Y+3) immunized with MVF-PD-1 peptide immunogens were tested individually versus the immunogen by ELISA. 200 ng/well peptide were used in duplicates to coat the ELISA plates. Titers are defined as the highest dilution of sera with an absorbance value of 0.2 after subtracting the blank.
FIGS. 5A, 5B, 5C, and 5D show the experimental scheme to test the immunization with PD-L1 in Balb/c mice. […] Balb/c mice 6-8 weeks old, were immunized with MVF-peptide immunogens emulsified in ISA 720 with nor-MDP three times and three weeks apart. Mice were immunized with MVF-PD-L1 vaccine constructs [PD-L1(36-53), PD-L1(50-67), PD-L1(95-112), PD-L1(130-147)] prior to tumor challenge. Blood was collected weekly and sera tested for antibody titers by ELISA. Two weeks after the third immunization (3Y), the mice were engrafted with CT26 WT tumor cells 10^5 per mouse Control mice were treated twice weekly with PBS as negative control and twice weekly with anti-mPD-L1 mAb (10F.9G2) as positive control starting 2 days after tumor challenge. Tumor growths were observed twice weekly and measured by calipers.
Immunogenicity of MVF-PD-L1 peptides in BALB/c mice immunized with various peptide constructs. Sera collected weekly were tittered against each individual MVF-PD-L1 peptide immunogen. The Pink bar refers to titers versus PD-L1 130 and the red bar refers to titers versus PD-1 (92-110).
In order to verify the efficacy of the PD-L1 epitope vaccines in vivo in the CT26 carcinoma cell line, Balb/c mice (10 mice/group) were immunized with 100 μg each of MVF-PD-L1 (36-53), MVF-PD-L1 (50-67), MVF-PD-L1 (95-112) and MVF-PD-L1 (130-147) emulsified with nor-MDP and Montanide 720 (1:1 ratio) SCHEME 1A (FIG. 5A). As detailed in SCHEME 1A-D (FIGS. 5A, 5B, 5C, and 5D), mice were immunized 3 times at 3 weeks intervals. […] All PD-L1 epitopes elicited high titers of PD-L1 anti-peptide antibodies by ELISA. […] We also investigated the combination of PD-1(92-110) with PD-L1-130-147.
For each peptide, vaccine antibodies were raised in New Zealand white rabbits, purchased from Charles River Laboratories (Wilmington, MA, USA). Rabbits were immunized with 1 mg of MVF chimeric peptide emulsified in Montanide ISA 720 (Seppic, Paris, France) and boosted 3 times at three week intervals. For mouse experiments, mice, 6-8 weeks old, were immunized with 0.1 mg of peptide emulsified in ISA720 (1:1 ratio). Mice were boosted with the respective doses at 3-week intervals. Blood was then collected and sera were tested for antibody titers. Sera were collected weekly and peptide vaccine antibodies were purified by affinity chromatography using a protein A/G column and the concentration was measured using Spectrophometer. All experiments were performed in accordance with the U.S. Public Health Service Policy on Humane Care and Use of Laboratory animals and approved by the Ohio State University Institutional Animals Care and Use Committee, detailed in the accepted protocol.
6-8 weeks old BALB/c mice (Charles River, Wilmington, MA) were used as standard animal models. Mouse CT26 colon carcinoma cell line was purchased from American Type Culture Collection Cells and were regularly cultured in RPMI1640 medium containing 10% FBS. CT26/HER2 cells were kindly provided by M. Penichet. Vaccines were dissolved in sterile water and emulsified in Montanide ISA 720 (1:1). […]

KLLSLIKGVIVHRLEGVEGPSLYRCMISYGGADYKRITVK (KLLSLIKGVIVHRLEGVEGPSLYRCMISYGGADYKRITVK-NH2) [PD-L1(95)]
Immunogenicity (titers) 1′ Conc. 1: (bleed 1Y + 3): 0 | Immunogenicity (titers) 1′ Conc. 1: (bleed 2Y + 1): 12800 | Immunogenicity (titers) 1′ Conc. 1: (bleed 2Y + 2): 32000 | Immunogenicity (titers) 1′ Conc. 1: (bleed 2Y + 3): 32000 | Immunogenicity (titers) 1′ Conc. 1: (bleed 3Y + 1): 32000 | Immunogenicity (titers) 1′ Conc. 1: (bleed 3Y + 2): 64000 | Immunogenicity (titers) 1′ Conc. 1: (bleed 3Y + 3): 32000 | ELISA absorbance of sera (bleed 1Y + 3 (1to100), dilution 100): 0.165 and 0.150 | ELISA absorbance of sera (bleed 1Y + 3 (1to100), dilution 200): 0.088 and 0.078 | ELISA absorbance of sera (bleed 1Y + 3 (1to100), dilution 400): 0.040 and 0.036 | ELISA absorbance of sera (bleed 1Y + 3 (1to100), dilution 800): 0.020 and 0.021 | ELISA absorbance of sera (bleed 1Y + 3 (1to100), dilution 1,600): 0.008 and 0.007 | ELISA absorbance of sera (bleed 1Y + 3 (1to100), dilution 3,200): 0.006 | ELISA absorbance of sera (bleed 1Y + 3 (1to100), dilution 6,400): 0.002 and 0.001 | ELISA absorbance of sera (bleed 2Y + 1 (1to100), dilution 100): 1.499 and 1.508 | ELISA absorbance of sera (bleed 2Y + 1 (1to100), dilution 200): 1.399 and 1.429 | ELISA absorbance of sera (bleed 2Y + 1 (1to100), dilution 400): 1.232 and 1.283 | ELISA absorbance of sera (bleed 2Y + 1 (1to100), dilution 800): 0.988 and 1.067 | ELISA absorbance of sera (bleed 2Y + 1 (1to100), dilution 1,600): 0.768 and 0.793 | ELISA absorbance of sera (bleed 2Y + 1 (1to100), dilution 3,200): 0.508 and 0.560 | ELISA absorbance of sera (bleed 2Y + 1 (1to100), dilution 6,400): 0.303 and 0.339 | ELISA absorbance of sera (bleed 2Y + 1 (1to100), dilution 12,800): 0.235 and 0.201 | ELISA absorbance of sera (bleed 2Y + 2 (1to1k), dilution row 100 (Table 5C), dilution 100): 1.553 and 1.522 | ELISA absorbance of sera (bleed 2Y + 2 (1to1k), dilution row 200 (Table 5C), dilution 200): 1.327 and 1.281 | ELISA absorbance of sera (bleed 2Y + 2 (1to1k), dilution row 400 (Table 5C), dilution 400): 1.035 and 0.982 | ELISA absorbance of sera (bleed 2Y + 2 (1to1k), dilution row 800 (Table 5C), dilution 800): 0.777 and 0.736 | ELISA absorbance of sera (bleed 2Y + 2 (1to1k), dilution row 1,600 (Table 5C)): 0.502 and 0.525 | ELISA absorbance of sera (bleed 2Y + 2 (1to1k), dilution row 3,200 (Table 5C)): 0.294 and 0.299 | ELISA absorbance of sera (bleed 2Y + 2 (1to1k), dilution row 6,400 (Table 5C)): 0.171 and 0.156 | ELISA absorbance of sera (bleed 2Y + 2 (1to1k), dilution row 12,800 (Table 5C)): 0.085 | ELISA absorbance of sera (bleed 2Y + 3 (1to1k), dilution 100): 1.256 and 1.224 | ELISA absorbance of sera (bleed 2Y + 3 (1to1k), dilution 200): 1.126 and 1.121 | ELISA absorbance of sera (bleed 2Y + 3 (1to1k), dilution 400): 0.933 and 0.900 | ELISA absorbance of sera (bleed 2Y + 3 (1to1k), dilution 800): 0.714 and 0.699 | ELISA absorbance of sera (bleed 2Y + 3 (1to1k), dilution 1,600): 0.500 and 0.484 | ELISA absorbance of sera (bleed 2Y + 3 (1to1k), dilution 3,200): 0.318 and 0.296 | ELISA absorbance of sera (bleed 2Y + 3 (1to1k), dilution 6,400): 0.150 and 0.154 | ELISA absorbance of sera (bleed 3Y + 1 (1to1k), dilution 100): 1.597 and 1.466 | ELISA absorbance of sera (bleed 3Y + 1 (1to1k), dilution 200): 1.387 and 1.308 | ELISA absorbance of sera (bleed 3Y + 1 (1to1k), dilution 400): 1.090 and 0.994 | ELISA absorbance of sera (bleed 3Y + 1 (1to1k), dilution 800): 0.859 and 0.753 | ELISA absorbance of sera (bleed 3Y + 1 (1to1k), dilution 1,600): 0.527 and 0.511 | ELISA absorbance of sera (bleed 3Y + 1 (1to1k), dilution 3,200): 0.275 and 0.263 | ELISA absorbance of sera (bleed 3Y + 1 (1to1k), dilution 6,400): 0.154 and 0.081 | ELISA absorbance of sera (bleed 3Y + 2 (1to1k), dilution 100): 2.076 and 1.906 | ELISA absorbance of sera (bleed 3Y + 2 (1to1k), dilution 200): 1.803 and 1.701 | ELISA absorbance of sera (bleed 3Y + 2 (1to1k), dilution 400): 1.417 and 1.293 | ELISA absorbance of sera (bleed 3Y + 2 (1to1k), dilution 800): 1.116 and 0.979 | ELISA absorbance of sera (bleed 3Y + 2 (1to1k), dilution 1,600): 0.685 and 0.664 | ELISA absorbance of sera (bleed 3Y + 2 (1to1k), dilution 3,200): 0.357 and 0.342 | ELISA absorbance of sera (bleed 3Y + 2 (1to1k), dilution 6,400): 0.201 and 0.205 | ELISA absorbance of sera (bleed 3Y + 3 (1to1k), dilution 100): 1.811 and 1.973 | ELISA absorbance of sera (bleed 3Y + 3 (1to1k), dilution 200): 1.616 and 1.713 | ELISA absorbance of sera (bleed 3Y + 3 (1to1k), dilution 400): 1.228 and 1.346 | ELISA absorbance of sera (bleed 3Y + 3 (1to1k), dilution 800): 0.930 and 1.061 | ELISA absorbance of sera (bleed 3Y + 3 (1to1k), dilution 1,600): 0.631 and 0.651 | ELISA absorbance of sera (bleed 3Y + 3 (1to1k), dilution 3,200): 0.230 and 0.244 | ELISA absorbance of sera (bleed 3Y + 3 (1to1k), dilution 6,400): 0.081 and 0.096
